{"source": "ChEMBL document CHEMBL2216752", "about": "“Carnitine palmitoyltransferase (CPT) modulators: a medicinal chemistry perspective on 35 years of research” (J Med Chem, 2011)", "key": {"[1]": {"molecular_target": "T1, Mitochondrial carnitine/acylcarnitine carrier protein (Homo sapiens, UniProt O43772)", "T1 sequence (O43772 whole entry)": "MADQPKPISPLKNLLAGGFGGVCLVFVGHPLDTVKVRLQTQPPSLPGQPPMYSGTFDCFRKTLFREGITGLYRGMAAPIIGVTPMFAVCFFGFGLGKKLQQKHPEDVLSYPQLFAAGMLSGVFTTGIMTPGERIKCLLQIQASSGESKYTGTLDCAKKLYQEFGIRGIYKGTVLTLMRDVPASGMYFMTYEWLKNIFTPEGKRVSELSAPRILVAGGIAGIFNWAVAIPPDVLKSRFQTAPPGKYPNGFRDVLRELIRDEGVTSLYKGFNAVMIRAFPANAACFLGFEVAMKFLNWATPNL", "assay": "Inhibition of CACT"}, "[2]": {"molecular_target": "T2, Carnitine O-palmitoyltransferase 2, mitochondrial (Rattus norvegicus, UniProt P18886)", "T2 sequence (P18886 whole entry)": "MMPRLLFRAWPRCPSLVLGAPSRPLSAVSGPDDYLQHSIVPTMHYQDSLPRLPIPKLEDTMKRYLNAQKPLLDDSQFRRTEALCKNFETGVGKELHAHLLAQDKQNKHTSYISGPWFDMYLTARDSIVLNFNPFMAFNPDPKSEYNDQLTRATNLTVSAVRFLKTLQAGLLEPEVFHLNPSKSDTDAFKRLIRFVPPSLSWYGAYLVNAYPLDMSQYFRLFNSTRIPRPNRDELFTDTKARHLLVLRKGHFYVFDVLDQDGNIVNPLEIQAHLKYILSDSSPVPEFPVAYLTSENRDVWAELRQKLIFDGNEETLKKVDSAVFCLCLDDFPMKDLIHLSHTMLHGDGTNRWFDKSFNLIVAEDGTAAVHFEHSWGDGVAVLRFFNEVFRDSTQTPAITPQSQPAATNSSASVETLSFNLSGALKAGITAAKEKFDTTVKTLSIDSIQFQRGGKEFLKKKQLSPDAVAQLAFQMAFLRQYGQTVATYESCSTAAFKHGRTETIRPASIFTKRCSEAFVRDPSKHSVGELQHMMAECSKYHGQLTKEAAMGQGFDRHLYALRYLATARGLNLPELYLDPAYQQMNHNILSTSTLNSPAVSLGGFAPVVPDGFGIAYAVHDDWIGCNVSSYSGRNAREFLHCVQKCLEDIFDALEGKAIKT", "assay": "Inhibition of rat CPT2 using [3H]carnitine by radiometric assay"}, "[3]": {"molecular_target": "T3, Carnitine O-palmitoyltransferase 1, liver isoform (Rattus norvegicus, UniProt P32198)", "T3 sequence (P32198 whole entry)": "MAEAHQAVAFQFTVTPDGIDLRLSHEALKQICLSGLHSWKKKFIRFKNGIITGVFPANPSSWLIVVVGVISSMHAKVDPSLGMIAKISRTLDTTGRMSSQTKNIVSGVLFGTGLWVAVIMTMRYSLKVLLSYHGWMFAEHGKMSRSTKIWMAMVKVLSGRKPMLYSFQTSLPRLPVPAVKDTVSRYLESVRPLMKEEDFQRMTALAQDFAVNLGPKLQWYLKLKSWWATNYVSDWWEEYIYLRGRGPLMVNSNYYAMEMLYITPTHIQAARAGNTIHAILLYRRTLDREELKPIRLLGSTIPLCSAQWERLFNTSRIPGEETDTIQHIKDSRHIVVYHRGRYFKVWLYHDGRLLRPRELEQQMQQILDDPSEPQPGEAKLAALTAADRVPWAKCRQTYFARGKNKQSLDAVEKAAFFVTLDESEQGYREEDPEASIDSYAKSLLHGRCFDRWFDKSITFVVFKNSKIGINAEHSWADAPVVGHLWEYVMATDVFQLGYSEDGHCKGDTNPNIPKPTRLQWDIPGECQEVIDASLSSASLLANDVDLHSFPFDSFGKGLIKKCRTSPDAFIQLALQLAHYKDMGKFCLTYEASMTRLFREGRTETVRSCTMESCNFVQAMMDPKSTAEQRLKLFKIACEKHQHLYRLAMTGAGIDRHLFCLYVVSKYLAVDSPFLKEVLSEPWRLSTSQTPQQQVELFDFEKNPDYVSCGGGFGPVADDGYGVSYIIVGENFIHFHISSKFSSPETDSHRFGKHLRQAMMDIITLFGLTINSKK", "assay": "Inhibition of rat CPT1A using [3H]carnitine by radiometric assay"}, "[4]": {"assay": "Inhibition of rat FAO"}, "[5]": {"assay": "Inhibition of human FAO"}, "[6]": {"assay": "Toxicity in po dosed Sprague-Dawley rat assessed as hypoglycemic coma", "type": "organism-based", "conditions": "in vivo"}, "Rattus norvegicus [7]": {"system": "Rattus norvegicus", "assay": "Reduction in blood glucose in po dosed Sprague-Dawley rat", "type": "functional"}, "Rattus norvegicus [8]": {"system": "Rattus norvegicus", "assay": "Reduction in blood glucose in Sprague-Dawley rat at 600 umol/kg, po", "type": "functional", "parameters": "scale not given: the % may be the effect or the level left"}, "[9]": {"molecular_target": "T4, Carnitine O-palmitoyltransferase 1, liver isoform (Homo sapiens, UniProt P50416)", "T4 sequence (P50416 whole entry)": "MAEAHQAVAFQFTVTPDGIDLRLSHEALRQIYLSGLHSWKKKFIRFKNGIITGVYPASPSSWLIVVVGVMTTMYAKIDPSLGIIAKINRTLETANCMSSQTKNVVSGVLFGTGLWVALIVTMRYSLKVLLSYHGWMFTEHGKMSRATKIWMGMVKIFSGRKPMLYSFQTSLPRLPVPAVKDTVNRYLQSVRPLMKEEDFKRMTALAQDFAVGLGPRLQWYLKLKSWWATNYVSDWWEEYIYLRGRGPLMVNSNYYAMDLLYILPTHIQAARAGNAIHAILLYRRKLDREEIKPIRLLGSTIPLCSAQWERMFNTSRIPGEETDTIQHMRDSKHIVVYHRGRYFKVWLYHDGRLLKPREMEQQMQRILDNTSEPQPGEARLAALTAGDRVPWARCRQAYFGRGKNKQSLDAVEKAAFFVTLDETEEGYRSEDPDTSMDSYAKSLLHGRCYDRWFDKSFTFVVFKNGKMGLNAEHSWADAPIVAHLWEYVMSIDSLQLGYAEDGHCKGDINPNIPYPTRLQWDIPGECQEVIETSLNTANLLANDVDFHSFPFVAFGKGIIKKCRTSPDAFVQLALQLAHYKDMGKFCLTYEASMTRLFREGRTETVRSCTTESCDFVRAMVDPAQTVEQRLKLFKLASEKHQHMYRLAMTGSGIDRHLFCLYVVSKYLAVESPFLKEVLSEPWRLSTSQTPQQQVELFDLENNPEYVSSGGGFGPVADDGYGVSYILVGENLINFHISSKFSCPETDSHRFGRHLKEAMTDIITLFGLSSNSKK", "assay": "Inhibition of CPT1A"}, "[10]": {"molecular_target": "T5, Carnitine O-palmitoyltransferase 1, muscle isoform (Homo sapiens, UniProt Q92523)", "T5 sequence (Q92523 whole entry)": "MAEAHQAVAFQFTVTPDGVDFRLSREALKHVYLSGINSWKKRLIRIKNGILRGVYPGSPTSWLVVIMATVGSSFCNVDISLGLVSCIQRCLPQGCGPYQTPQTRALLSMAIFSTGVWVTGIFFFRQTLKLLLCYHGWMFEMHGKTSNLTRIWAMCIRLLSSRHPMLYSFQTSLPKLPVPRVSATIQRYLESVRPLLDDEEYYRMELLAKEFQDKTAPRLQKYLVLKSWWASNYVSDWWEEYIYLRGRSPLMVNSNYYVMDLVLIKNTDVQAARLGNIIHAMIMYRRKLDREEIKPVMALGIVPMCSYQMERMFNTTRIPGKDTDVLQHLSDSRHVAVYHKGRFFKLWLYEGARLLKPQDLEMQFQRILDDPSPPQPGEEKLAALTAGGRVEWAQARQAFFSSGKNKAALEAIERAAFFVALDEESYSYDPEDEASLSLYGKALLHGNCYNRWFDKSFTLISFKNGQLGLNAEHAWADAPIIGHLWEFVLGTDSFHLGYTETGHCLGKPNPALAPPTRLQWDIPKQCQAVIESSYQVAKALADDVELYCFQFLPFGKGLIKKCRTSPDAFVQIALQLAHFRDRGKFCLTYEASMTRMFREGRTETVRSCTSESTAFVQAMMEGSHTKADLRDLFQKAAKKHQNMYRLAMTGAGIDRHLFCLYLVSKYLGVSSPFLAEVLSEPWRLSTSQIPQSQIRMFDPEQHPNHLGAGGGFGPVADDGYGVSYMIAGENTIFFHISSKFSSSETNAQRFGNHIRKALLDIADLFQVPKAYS", "assay": "Inhibition of CPT1B"}, "[11]": {"molecular_target": "T6, Carnitine O-palmitoyltransferase 2, mitochondrial (Homo sapiens, UniProt P23786)", "T6 sequence (P23786 whole entry)": "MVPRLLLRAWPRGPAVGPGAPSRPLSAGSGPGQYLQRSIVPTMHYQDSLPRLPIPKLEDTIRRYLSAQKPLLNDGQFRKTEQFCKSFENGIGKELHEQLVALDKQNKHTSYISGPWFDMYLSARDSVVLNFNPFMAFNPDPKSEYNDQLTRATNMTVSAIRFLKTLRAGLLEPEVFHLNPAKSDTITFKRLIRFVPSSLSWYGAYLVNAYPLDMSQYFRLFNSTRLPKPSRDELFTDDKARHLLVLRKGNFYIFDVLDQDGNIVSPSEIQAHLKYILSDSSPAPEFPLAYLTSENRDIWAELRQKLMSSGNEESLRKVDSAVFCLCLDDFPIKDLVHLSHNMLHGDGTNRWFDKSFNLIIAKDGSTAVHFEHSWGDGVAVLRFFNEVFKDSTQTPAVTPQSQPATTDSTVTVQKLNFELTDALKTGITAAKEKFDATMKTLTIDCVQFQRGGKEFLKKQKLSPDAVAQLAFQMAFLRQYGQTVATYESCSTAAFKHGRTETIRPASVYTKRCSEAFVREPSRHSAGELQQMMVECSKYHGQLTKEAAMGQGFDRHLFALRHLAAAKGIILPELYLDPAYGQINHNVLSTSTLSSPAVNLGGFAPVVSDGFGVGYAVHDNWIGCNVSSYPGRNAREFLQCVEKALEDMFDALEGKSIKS", "assay": "Inhibition of human CPT2"}, "[12]": {"molecular_target": "T2, Carnitine O-palmitoyltransferase 2, mitochondrial", "assay": "Inhibition of rat CPT2"}, "[13]": {"molecular_target": "T5, Carnitine O-palmitoyltransferase 1, muscle isoform", "assay": "Inhibition of human CPT1B"}, "[14]": {"molecular_target": "T4, Carnitine O-palmitoyltransferase 1, liver isoform", "assay": "Inhibition of human CPT1A"}, "[15]": {"assay": "Inhibition of carnitine palmitoyltransferase in rat heart mitochondria assessed as conversion of [14C]palmitic acid to [14C]palmitoylcarnitine by radiometric assay"}, "[16]": {"assay": "Inhibition of carnitine palmitoyltransferase in rat liver mitochondria assessed as conversion of [14C]palmitic acid to [14C]palmitoylcarnitine by radiometric assay"}}}
{"compound": "CCCCCCCC(=O)O[C@@H](CC(=O)[O-])C[N+](C)(C)C", "values": [{"measurement": "IC50", "setting": "[1]", "value": 35, "unit": "µM"}]}
{"compound": "CCCCCCCCCCCCCCCC1(O)C[N+](C)(C)CC(CC(=O)[O-])O1", "note": "(stereo in doubt; (+)-27)", "values": [{"measurement": "IC50", "setting": "[2]", "value": 47.5, "unit": "µM"}, {"measurement": "IC50", "setting": "[3]", "value": 38.5, "unit": "µM"}]}
{"compound": "O=C(O)[C@@]1(CCCCCCOc2ccccc2)CO1", "note": "[DECHLOROETOMOXIR]", "values": [{"measurement": "IC50", "setting": "[4]", "value": 4.4, "unit": "µM"}, {"measurement": "IC50", "setting": "[5]", "value": 1.8, "unit": "µM"}]}
{"compound": "CCOC(=O)C1(CCCCCc2ccc(Cl)cc2)CO1", "note": "(racemic)", "values": [{"measurement": "LD50", "setting": "[6]", "value": 275, "unit": "mg/kg"}, {"measurement": "ED50", "setting": "Rattus norvegicus [7]", "value": 6, "unit": "mg/kg"}, {"measurement": "Activity", "setting": "Rattus norvegicus [8]", "value": 80, "unit": "%"}]}
{"compound": "O=C(O)C1(C(F)(F)CCCCCOc2ccc(Cl)cc2)CO1", "note": "(configuration not stated)", "values": [{"measurement": "IC50", "setting": "[9]", "value": 0.25, "unit": "µM"}, {"measurement": "IC50", "setting": "[10]", "value": "> 50", "unit": "µM"}]}
{"compound": "COc1ccc(C)cc1S(=O)(=O)N1CCCc2ccc(C(=O)Nc3ccc(CC(=O)O)cc3)cc21", "values": [{"measurement": "IC50", "setting": "[11]", "value": 2.8, "unit": "µM"}, {"measurement": "IC50", "setting": "[12]", "value": 16.7, "unit": "µM"}, {"measurement": "IC50", "setting": "[13]", "value": 3.5, "unit": "µM"}, {"measurement": "IC50", "setting": "[14]", "value": 0.16, "unit": "µM"}]}
{"compound": "CCCCCCCCCC(=O)O[C@@H](CC(=O)[O-])C[N+](C)(C)C", "values": [{"measurement": "IC50", "setting": "[1]", "value": 5, "unit": "µM"}]}
{"compound": "CCCCCCCCCCCCCCCC1(O)C[N+](C)(C)CC(CC(=O)[O-])O1", "note": "(stereo in doubt; (-)-27)", "values": [{"measurement": "IC50", "setting": "[2]", "value": 6.7, "unit": "µM"}, {"measurement": "IC50", "setting": "[3]", "value": 15.5, "unit": "µM"}]}
{"compound": "CCCCCCCCCCCCCCCC(=O)O[C@@H](CC(=O)[O-])C[N+](C)(C)C", "values": [{"measurement": "IC50", "setting": "[1]", "value": 35, "unit": "µM"}]}
{"compound": "CCCCCCCCCCCNS(=O)(=O)N[C@H](CC(=O)[O-])C[N+](C)(C)C", "values": [{"measurement": "IC50", "setting": "[15]", "value": 5.8, "unit": "µM"}, {"measurement": "IC50", "setting": "[16]", "value": 0.8, "unit": "µM"}]}
{"compound": "CCCCCCCC[C@H]1OC(=O)C(C)=C1C(=O)O", "values": [{"measurement": "IC50", "setting": "[4]", "value": "> 100", "unit": "µM"}, {"measurement": "IC50", "setting": "[5]", "value": 77, "unit": "µM"}]}
